# From US20170362388A1, “Disulfide Polymers and Methods of Use” (The Brigham and Women's Hospital, Inc., priority 2014, published 2017)
# Columns and labels:
# Hela and DU145 cells = assay: In vitro anticancer performance of docetaxel-loaded NPs, alamar blue; type: cell-based
# Method: Hela, MCF-7, A549, and DU145 cells were used to evaluate in vitro anticancer performance of docetaxel-loaded NPs (Cys-OMe-8/Cys-8E NPs with 10 wt % docetaxel loaded with docetaxel concentration ranging from 1 ng/ml to 500 ng/mL). Hela, MCF-7, A549, and DU145 cells were used. Cells (5,000 cells/well) were seeded in 96-well plates the day before use, and cultured according to recommendations from ATCC. Cells were treated with different concentrations of free docetaxel or docetaxel loaded NP for 4 h or 48 h (N=5). For the 4 h experiment, treated cells were washed twice with PBS buffer and the plate was incubated for another 44 h after replacement of fresh medium. Cell viability at 48 h was determined by alamar blue assay. As a control, the polymer cytotoxicity on Hela cells was ascertained using empty NPs.
# In FIGS. 24B and 24D: DU145 cells were treated with docetaxel-loaded NPs for 4 h and 48 h, respectively.
# The Alamar blue assay was used to evaluate the NP cytotoxicity. Briefly, 10% 0.1 mg/mL alamar blue was first added into each well and the plate was incubated for another 2 h. Then the fluorescence intensity was measured by a microplate reader (excitation/emission=530 nm/590 nm).
# Maximum tolerated dose = conditions: mouse, in vivo; normal Balb/c mice
# [1] = system: A549 Human Lung Carcinoma Xenograft; assay: Antitumor efficacy of docetaxel-loaded NPs; type: in vivo, mice; conditions: 5 mg/kg docetaxel equivalent, iv tail vein, two injections
# Method: A549 cell suspension (100 μL, equivalent to 5×10^6 cells) was first mixed with 100 μL Matrigel (BD scientific Co.), then subcutaneously injected into the right flank of 5-week-old female athymic nude mice (Charles River). The treatment was initiated on the 9th day, when solid tumor reached ˜100 mm^3. Tumor-bearing mice were divided into 4 groups and injected […] on the 9th and 23rd days after tumor inoculation with: (i) 1× PBS (ii) docetaxel 5 mg/kg (MTD), (iii) Cys-OMe-8/Cys-8E NPs at a docetaxel equivalent dose of 5 mg/kg (MTD), (iv) Cys-OMe-8/Cys-8E NPs at a docetaxel equivalent dose of 10 mg/kg. Control or drugs were administered by intravenous injection in the lateral tail vein (10 μL per g of body weight). Tumor dimension and body weight were recorded every other day. Tumor volume was calculated as follows: Volume [mm^3]=[…]. Mice were regularly monitored (every other day) for physical performance and were euthanized upon exceeding 15% weight loss, over 1500 mm^3 volume or if tumor ulceration was observed. Prior to the experiment, the maximum tolerated dose (MTD) of free docetaxel was established in normal Balb/c mice at 5 mg/kg. Tumor volumes at Day 30 were compared using the ANOVA analysis.
# FIG. 30 is a plot of the antitumor effects of docetaxel-loaded Cys-OMe-8/Cys-8E nanoparticles in A549 tumor bearing mice. […]
smiles,measurement,setting,value
CC(=O)O[C@@]12CO[C@@H]1C[C@H](O)[C@@]1(C)C(=O)[C@H](O)C3=C(C)[C@@H](OC(=O)[C@H](O)[C@@H](NC(=O)OC(C)(C)C)c4ccccc4)C[C@@](O)([C@@H](OC(=O)c4ccccc4)[C@H]21)C3(C)C [docetaxel],IC50,"Hela and DU145 cells; 4 h treatment, viability at 48 h",~0.1 µg/mL
same,IC50,Hela and DU145 cells; 48 h treatment,~0.005 µg/mL
same,MTD,Maximum tolerated dose,5 mg/kg
same,Tumor inhibition,[1],only limited tumor inhibition
